# Source: patent US20240408077A1, “ATM KINASE INHIBITORS FOR USE IN THE TREATMENT OF NEUROLOGICAL CONDITIONS” (The University of Birmingham, priority 2021, published 2024)
# Read-outs that look alike come from different tables or passages of the source.
# Legend:
# [1] = system: primary adult rat DRGN; experiment: DRGN survival and neurite outgrowth in the presence of CNS myelin extracts; format: cell-based; settings: with CME
# Experimental: Primary adult rat DRGN cultures were prepared as described by us previously (11). DRGN were dissociated using collagenase and cultured in supplemented Neurobasal-A (#10888022; NBA) containing B27 supplement (#17504044), L-glutamine (#25030081) and gentamicin (#15710064) (all from Invitrogen, Paisley, UK) at a plating density of 500/well in 8-well chamber slides (#C6932; Beckton Dickinson, Oxford, UK) pre-coated with 100 μg/ml poly-D-lysine (#P6407; Sigma, Poole, UK). Glial cell proliferation was inhibited in cultures using 5-fluoro-2-deoxyuridine (5-FDU; #343333; Sigma) at 30 μM (11). […] Positive controls included pre-optimized fibroblast growth factor-2 (FGF-2) (#100-18C, Peprotech, London, UK; 10 ng/ml (11)). Cells were cultured for 4 days in a humidified chamber at 37° C. and 5% CO2 before being subjected to immunocytochemistry, as described below. Treatments were added in triplicate and repeated on 3 independent occasions (i.e. total n=9 wells/treatment) by an investigator masked to the treatment conditions.
# DRGN were fixed in 8-well chamber slides in situ using 4% paraformaldehyde before being subjected to immunocytochemistry with rabbit anti-βIII tubulin antibodies (#T3952; 1:200 dilution; Sigma) to detect DRGN soma and neurites, as described previously (11). Alexa-488 goat […] IgG (#A32723; 1:400 dilution; ThermoFisher, Leicester, UK) secondary antibodies were used to visualize DRGN soma and neurites using an Axioplan 2 epifluorescent microscope equipped with an AxioCam HRc and running Axiovision Software (all from Carl Zeiss, Hertfordshire, UK).
# With the investigator masked to the treatment conditions, the proportion of βIII-tubulin^+ DRGN, the number of DRGN with neurites and the longest DRGN neurite length were all calculated using Axiovision Software, as described by us previously (11).
# [2] = target: T1, phosphorylated ATM (pATM) (Rattus norvegicus, UniProt D4ACL8); experiment: pATM levels in DRGN cultures, western blot and densitometry; format: cell-based
# T1 construct: Total protein was extracted from DRGN cultures and fresh DRG tissues; endogenous in cells; host or cells: primary adult rat dorsal root ganglion neurons
# Experimental: Primary adult rat DRGN cultures were prepared as described by us previously (11). DRGN were dissociated using collagenase and cultured in supplemented Neurobasal-A (#10888022; NBA) containing B27 supplement (#17504044), L-glutamine (#25030081) and gentamicin (#15710064) (all from Invitrogen, Paisley, UK) at a plating density of 500/well in 8-well chamber slides (#C6932; Beckton Dickinson, Oxford, UK) pre-coated with 100 μg/ml poly-D-lysine (#P6407; Sigma, Poole, UK). […] Sigma) at 30 μM (11). […] Positive controls included pre-optimized fibroblast growth factor-2 (FGF-2) (#100-18C, Peprotech, London, UK; 10 ng/ml (11)). Cells were cultured for 4 days in a humidified chamber at 37° C. and 5% CO2 before being subjected to immunocytochemistry, as described below. Treatments were added in triplicate and repeated on 3 independent occasions (i.e. total n=9 wells/treatment) by an investigator masked to the treatment conditions. […] Tocris, Oxford, UK) were dissolved in DMSO (Sigma, Poole, UK) at stock concentrations of 10 mM for in vitro use. […] After a protein assay using the Bradford Assay Kit (#5000001; […] Proteins were then transferred onto PVDF membranes (#1EVH00005, Merck, Gillingham, UK), blocked in non-fat milk and incubated with rabbit anti-pATM ([…]) antibody (#13050, 1:200 dilution, Cell Signalling Technology, London, UK) overnight at 4° C. Membranes were then washed in Tris buffered saline (TBS) and incubated with appropriate mouse/rabbit HRP-labelled secondary antibody (#GENA934; 1:1000 dilution, GE Healthcare, Buckinghamshire, UK) and bands detected using an enhanced chemiluminescence kit (#RPN2108, GE Healthcare). Rabbit anti-β-actin antibody (#ZRB1312, 1:1000; Sigma) was used as a loading control for western blots. For densitometry, western blots were scanned into Adobe Photoshop (Adobe Systems, San Jose, CA, USA) keeping all scanning parameters the same between each blot and densitometrically analysed using the built-in gel plotting macros in ImageJ ([…].gov), as previously described (7).
# [3] = target: T2, pATM (pSer 1981) (Mus musculus, UniProt Q62388); experiment: pATM levels in DRG after DC crush injury, western blot and densitometry; format: in vivo, mice; settings: for pATM (pSer 1981) levels: oral 20 mg/kg once daily, DRG at 4 weeks after DC injury; for pATM inhibition in DRGN from SCI treated animals: oral, doses up to 100 mg/kg
# T2 construct: L4/L5 DRG pairs were dissected out and snap frozen in liquid nitrogen; from tissue; host or cells: mouse L4/L5 dorsal root ganglia, 4 weeks after DC crush injury
# Experimental: (§1) Mice were subcutaneously injected with Buprenorphine and anaesthetized using 5% isoflurane and 1.8 l/min O2. After a partial laminectomy at T8, DC were crushed bilaterally using calibrated watchmaker's forceps as described by us previously (12). Animals were dosed immediately after injury and allowed to recover in their home cage. Drugs were given every 24 hours for the duration of each experiment.
# For western blot, animals were killed at 4 weeks and tissues harvested as described below. For immunohistochemistry and behavioural analysis, animals were treated up to 6 weeks after DC injury.
# Methods for tissue harvesting have been described by us previously (7, 12). Briefly, for western blot analysis: animals were killed by rising concentrations of CO2 and L4/L5 DRG pairs were dissected out and snap frozen in liquid nitrogen and stored at −80° C. until required (7). For immunohistochemistry: animals were killed in rising concentrations of CO2 and intracardially perfused with 4% paraformaldehyde (7, 12). The SCI site+5 mm either side of the lesion center was dissected out and postfixed in 4% formaldehyde for 2 hr, followed by cryoprotection in a graded series of sucrose and embedded in optimal temperature cutting medium (#12678646, ThermoFisher). Sections were cut at 15 μm-thick stored at −80° C. until required.
# Total protein was extracted from DRGN cultures and fresh DRG tissues as described by us previously (7, 12). Briefly, cultures/DRG tissues were washed in PBS and total protein extracted in ice-cold lysis buffer containing 20 mM HEPES, 1 mM EDTA, 150 mM NaCl, 1% NP-40 and 1 mM DTT and supplemented with protease (#P8340) and phosphatase inhibitor cocktails (#P5726) (all from Sigma). After a protein assay using the Bradford Assay Kit (#5000001; BioRad, Watford, UK), 15 μg of total protein was separated on 12% Tris-glycine SDS-PAGE gels. Proteins were then transferred onto PVDF membranes (#1EVH00005, Merck, Gillingham, UK), blocked in non-fat milk and incubated with rabbit anti-pATM (ser1981) antibody (#13050, 1:200 dilution, Cell Signalling Technology, London, UK) overnight at 4° C. Membranes were then washed in Tris buffered saline (TBS) and incubated with appropriate mouse/rabbit HRP-labelled secondary antibody (#GENA934; 1:1000 dilution, GE Healthcare, Buckinghamshire, UK) and bands detected using an enhanced chemiluminescence kit (#RPN2108, GE Healthcare). Rabbit anti-β-actin antibody (#ZRB1312, 1:1000; Sigma) was used as a loading control for western blots.
# For densitometry, western blots were scanned into Adobe Photoshop (Adobe Systems, San Jose, CA, USA) keeping all scanning parameters the same between each blot and densitometrically analysed using the built-in gel plotting macros in ImageJ (ww.nihimage.nih.gov), as previously described (7).
# [4] = system: DC axons; format: in vivo, mice; settings: oral 20 mg/kg once daily; for DC axon regeneration through the lesion site: 6 weeks after injury
# [5] = system: DC injury model of SCI; experiment: tape sensing and removal test (sensory function) after DC injury; format: in vivo, mice; settings: oral; for tape sensing and removal time: over 6 weeks after DC injury, versus controls
# Experimental: (§2) Mice were subcutaneously injected with Buprenorphine and anaesthetized using 5% isoflurane and 1.8 l/min O2. After a partial laminectomy at T8, DC were crushed bilaterally using calibrated watchmaker's forceps as described by us previously (12). Animals were dosed immediately after injury and allowed to recover in their home cage. Drugs were given every 24 hours for the duration of each experiment. Tape sensing and removal and horizontal ladder crossing tests were used to detect sensory and locomotor changes after DC injury and treatment as described by us previously (7). Briefly, tape sensing and removal was tested by attaching a 15/15 mm piece of sticky tape (Kip Hochkrepp, Bocholt, Germany) onto the plantar surface of each the left paw of each mouse and recording the time taken to detect and remove the tape. For the ladder crossing test, each mouse was trained prior to DC injury to master the traversing the ladder (0.9 m long and 15.5 cm wide with randomly adjusted rungs). Animals were assessed crossing the ladder and the total number of steps and the number of left and right hind paw slips were recorded and presented as an error ratio. All of these tests were performed at 2 days after injury, then at 1 week followed by weekly tests for 6 weeks. The experimenter was masked to the treatment conditions and animals were assessed in the same order and time of day with each test performed for 3 individual trials on each occasion.
# [6] = system: DC injury model of SCI; experiment: horizontal ladder crossing test (locomotor function) after DC injury; format: in vivo, mice; settings: oral; for locomotor function, ladder crossing: over 6 weeks after DC injury
# Experimental: as §2
# [7] = system: γH2Ax+ foci; settings: twice weekly injections directly into the CSF, cited from earlier work
# [8] = system: DC injury model of SCI; experiment: electrophysiology, compound action potentials across the lesion site after DC injury; format: in vivo, mice; settings: oral, 6 weeks after DC injury
# Experimental: as §1, with “experiment. […] Spike 2 software (Cambridge Electronic Design, Cambridge, UK) was used to process and analyse the traces and determine the CAP amplitude and CAP area for each condition.” for “experiment.”
# [9] = target: T3, ATM (Homo sapiens, UniProt Q13315); settings: read-out: cell IC50; cited from earlier work
# [10] = system: kinases within the same family; settings: cited from earlier work
# [11] = after oral administration; cited from earlier work
# [12] = system: brain gliomas; settings: in combination with daily ionizing radiation therapy; cited from earlier work
# [13] = target: T3, ATM; settings: cited from earlier work
# [14] = 5 nM, compared to vehicle-treated DRGN
# T1 sequence (D4ACL8 1-3064): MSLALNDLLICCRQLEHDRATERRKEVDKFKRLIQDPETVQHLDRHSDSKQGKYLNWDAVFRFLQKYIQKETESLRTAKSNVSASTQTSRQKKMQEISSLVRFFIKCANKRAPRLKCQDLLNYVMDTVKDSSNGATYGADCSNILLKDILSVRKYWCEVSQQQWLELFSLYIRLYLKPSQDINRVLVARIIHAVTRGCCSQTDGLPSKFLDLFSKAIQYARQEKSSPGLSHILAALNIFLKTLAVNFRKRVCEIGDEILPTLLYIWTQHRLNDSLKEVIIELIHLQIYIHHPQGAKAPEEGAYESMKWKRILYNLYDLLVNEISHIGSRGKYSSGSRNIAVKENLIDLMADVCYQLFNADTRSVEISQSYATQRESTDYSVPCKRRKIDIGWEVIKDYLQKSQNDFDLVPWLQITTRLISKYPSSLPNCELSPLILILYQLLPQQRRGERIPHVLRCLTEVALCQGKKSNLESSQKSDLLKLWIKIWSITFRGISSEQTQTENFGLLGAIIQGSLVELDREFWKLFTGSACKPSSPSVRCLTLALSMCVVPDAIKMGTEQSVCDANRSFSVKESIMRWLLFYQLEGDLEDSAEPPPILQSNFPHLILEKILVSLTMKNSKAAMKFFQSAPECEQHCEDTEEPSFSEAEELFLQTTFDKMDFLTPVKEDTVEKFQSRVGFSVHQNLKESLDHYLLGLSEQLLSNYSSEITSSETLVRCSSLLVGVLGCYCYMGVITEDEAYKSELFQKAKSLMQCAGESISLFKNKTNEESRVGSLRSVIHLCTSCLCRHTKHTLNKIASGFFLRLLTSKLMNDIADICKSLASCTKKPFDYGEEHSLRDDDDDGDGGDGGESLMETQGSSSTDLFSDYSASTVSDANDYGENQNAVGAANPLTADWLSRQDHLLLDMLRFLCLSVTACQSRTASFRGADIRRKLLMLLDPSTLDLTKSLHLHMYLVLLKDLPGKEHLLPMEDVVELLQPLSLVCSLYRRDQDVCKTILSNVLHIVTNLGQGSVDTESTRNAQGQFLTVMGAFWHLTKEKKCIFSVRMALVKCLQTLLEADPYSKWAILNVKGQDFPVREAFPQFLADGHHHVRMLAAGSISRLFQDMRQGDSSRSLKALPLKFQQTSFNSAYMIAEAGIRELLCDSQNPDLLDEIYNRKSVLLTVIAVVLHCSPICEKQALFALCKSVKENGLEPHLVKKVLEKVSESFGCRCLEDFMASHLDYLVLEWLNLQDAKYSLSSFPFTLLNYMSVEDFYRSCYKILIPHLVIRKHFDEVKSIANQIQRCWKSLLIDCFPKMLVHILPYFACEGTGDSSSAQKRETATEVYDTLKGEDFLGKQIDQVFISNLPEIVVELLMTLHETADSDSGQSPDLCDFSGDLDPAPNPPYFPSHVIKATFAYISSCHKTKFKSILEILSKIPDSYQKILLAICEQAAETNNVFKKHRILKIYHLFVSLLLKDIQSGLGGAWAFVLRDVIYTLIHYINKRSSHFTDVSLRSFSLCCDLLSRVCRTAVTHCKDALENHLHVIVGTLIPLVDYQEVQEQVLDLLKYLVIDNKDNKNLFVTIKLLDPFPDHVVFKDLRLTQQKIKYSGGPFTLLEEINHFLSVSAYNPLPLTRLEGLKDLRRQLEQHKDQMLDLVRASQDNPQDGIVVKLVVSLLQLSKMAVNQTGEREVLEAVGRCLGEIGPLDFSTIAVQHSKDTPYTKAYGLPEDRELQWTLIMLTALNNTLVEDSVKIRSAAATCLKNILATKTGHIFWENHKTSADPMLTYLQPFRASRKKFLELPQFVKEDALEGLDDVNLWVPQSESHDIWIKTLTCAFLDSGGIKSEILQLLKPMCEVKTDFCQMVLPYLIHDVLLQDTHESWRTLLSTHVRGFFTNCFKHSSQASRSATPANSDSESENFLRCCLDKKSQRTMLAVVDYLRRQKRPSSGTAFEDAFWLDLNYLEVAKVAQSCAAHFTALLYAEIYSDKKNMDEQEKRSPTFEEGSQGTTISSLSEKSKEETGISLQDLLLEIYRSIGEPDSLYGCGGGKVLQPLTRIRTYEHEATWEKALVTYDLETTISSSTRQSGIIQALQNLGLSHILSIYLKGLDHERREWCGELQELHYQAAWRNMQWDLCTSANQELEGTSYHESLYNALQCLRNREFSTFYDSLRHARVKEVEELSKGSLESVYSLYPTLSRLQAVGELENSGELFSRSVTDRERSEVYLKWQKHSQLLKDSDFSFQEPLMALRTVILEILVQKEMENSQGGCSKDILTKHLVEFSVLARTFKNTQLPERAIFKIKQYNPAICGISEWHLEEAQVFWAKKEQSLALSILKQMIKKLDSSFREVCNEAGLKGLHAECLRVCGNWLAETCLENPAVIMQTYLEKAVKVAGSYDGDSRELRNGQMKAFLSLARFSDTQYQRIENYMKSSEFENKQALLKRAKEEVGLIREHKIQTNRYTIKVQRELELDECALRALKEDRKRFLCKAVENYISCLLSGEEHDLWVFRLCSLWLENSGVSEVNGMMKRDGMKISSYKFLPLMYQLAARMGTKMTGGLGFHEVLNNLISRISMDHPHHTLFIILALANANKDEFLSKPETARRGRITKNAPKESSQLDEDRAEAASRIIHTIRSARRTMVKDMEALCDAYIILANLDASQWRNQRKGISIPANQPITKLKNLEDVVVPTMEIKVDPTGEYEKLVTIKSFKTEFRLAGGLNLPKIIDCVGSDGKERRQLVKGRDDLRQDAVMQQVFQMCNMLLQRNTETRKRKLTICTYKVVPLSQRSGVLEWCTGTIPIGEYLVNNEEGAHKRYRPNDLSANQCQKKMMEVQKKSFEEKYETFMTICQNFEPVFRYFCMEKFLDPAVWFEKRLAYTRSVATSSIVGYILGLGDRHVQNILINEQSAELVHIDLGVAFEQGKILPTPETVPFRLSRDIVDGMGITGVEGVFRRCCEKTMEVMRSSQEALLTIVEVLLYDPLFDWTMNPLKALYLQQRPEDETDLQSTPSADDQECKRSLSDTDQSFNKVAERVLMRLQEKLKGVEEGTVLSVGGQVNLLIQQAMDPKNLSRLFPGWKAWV
compound,measurement,setting,value
"FGF-2: fibroblast growth factor-2, positive control (Peprotech), 10 ng/ml",DRGN survival and neurite outgrowth in comparison with AZD1390,"[1]; FGF-2 10 ng/ml positive control, KU-60019 at concentrations of a recent study",inferior compared to AZD1390
C[C@@H]1CN(CC(=O)Nc2ccc3c(c2)Cc2cccc(-c4cc(=O)cc(N5CCOCC5)o4)c2S3)C[C@H](C)O1 [KU-60019],ATM activation in vitro,[2],able to suppress ATM activation in vitro
same,suppression of pATM levels,[3]; intrathecal delivery after injury,81%
same,pATM (pSer 1981) levels,[3],no effect
same,pATM inhibition in DRGN from SCI treated animals,[3],no pATM inhibition
same,pATM inhibition in DRGN from SCI treated animals,[3]; listed as KU6000-19,no effect
same,DC axon regeneration through the lesion site,[4],not oral KU-60019 promoted DC axon regeneration
same,tape sensing and removal time,[5],no effect
same,"locomotor function, ladder crossing",[6],a significant deficit remained
same,γH2Ax+ foci,[7]; after SCI,reduced
same,functional recovery after SCI,[7],promoted significant functional recovery
"CC(C)n1c(=O)n(C)c2cnc3ccc(-c4ccc(OCCCN5CCCCC5)nc4F)cc3c21 [AZD1390, 8-[2-Fluoro-6-[3-(I-piperidyl)propoxy]-3-pyridyl]-1-isopropyl-3-methyl-imidazo[4,5-c]quinolin-2-one]",reduction of pATM levels,"[2]; 5 nM, compared to vehicle-treated (0 nM) cultures",70%
same,lowest most effective dose for reduction of pATM levels,[2]; concentrations 1-10 nM tested,5 nM
same,increase of DRGN survival,[1]; [14],60%
same,increase of longest neurite length,[1]; [14],81%
same,increase of percentage of DRGN with neurites,[1]; [14],88%
same,pATM (pSer 1981) levels,[3],significant suppression
same,DC axon regeneration through the lesion site,[4],promoted DC axon regeneration through the lesion site and into the rostral cord
same,axons regenerating beyond the lesion site,"[4]; up to 1 mm beyond the lesion site, compared to vehicle-treated mice",up to 12%
same,CAP amplitudes,[8],significantly improved
same,CAP areas,[8],significantly improved
same,CAP trace,[8],return of a significant CAP trace
same,time for sensory function to return to baseline of sham-uninjured animals,[5]; after injury,≤ 4 weeks
same,tape sensing and removal time,[5],significantly shorter time than controls
same,"time to recover to sham-uninjured control levels, ladder crossing",[6],≤ 4 weeks
same,"locomotor function, ladder crossing",[6],marked improvement
same,IC50,[9],0.78 nM
same,selectivity over kinases within the same family,[10],"> 10,000 fold"
same,time bioavailable in the brain,[11],at least 8 hours
same,tumor response and survival,[12],induced tumor regression and prolonged survival
same,IC50,[13],0.5 to 3 nM
